# Literature values in patent US20110212944A1, “2-OXO-1-PYRROLIDINE DERIVATIVES” (priority 2008, published 2011).
smiles,measurement,setting,value
"CCC[C@@H]1CC(=O)N([C@@H](CC)C(N)=O)C1 [brivaracetam, 2(S)-[2-oxo-4(R)-propylpyrrolidin-1-yl]butyramide]",time after drug administration within which adverse events subsided,after drug administration,≤ 24 h
same,severity of treatment emergent adverse events,"primarily CNS-related events (dizziness, somnolence, headache etc.)",mild to moderate
